Test: excess molar enthalpy (molar enthalpy of mixing); xn = mol fraction of the nth substance listed
Details: 1273 K, 105 kPa, Liquid, Calvet calorimetry

[Ni] [nickel] + [Bi]
Details	excess molar enthalpy [kcal/mol]
x1 = 0.0552	-0.0846
x1 = 0.1056	-0.165
x1 = 0.1516	-0.227
x1 = 0.1935	-0.272
x1 = 0.2321	-0.301
x1 = 0.2677	-0.321
x1 = 0.3011	-0.329
x1 = 0.3319	-0.325
